{
  "source": "patent US20200024246A1",
  "about": "“POGOSTONE DERIVATIVES AND METHODS OF USING THE SAME” (Hamyard Associates LLC, priority 2018, published 2020)",
  "key": {"[1]": {"system": "adult female Aedes aegypti", "assay": "Topical combination of Formula 13 with synthetic insecticides (FIGS. 6-9)", "format": "in vivo", "method": "A low-dose concentration of Formula 13 (500 μg/mL) was applied in combination with chlorfenapyr (75 μg/mL), dibrom (10 μg/mL), thiamethoxam (100 μg/mL), and permethrin (2.5 μg/mL) to the pronotum of adult female Aedes aegypti in 0.2 μL of acetone. These concentrations were chosen as they produced little-to-no mortality at 24 hours after application. Knockdown (immobilization) was recorded at 1 hour after application and mortality was recorded at 24, 48, and 72 hours after initial application. These applications were run in parallel to a topical application of a combined mixture of 500 μg/mL Formula 13 and 75 μg/mL of chlorfenpayr to the pronotum of adult female mosquitoes. For this experiment, total of 25 mosquitoes were treated within each replicate, with a minimum of 3 replicates utilized for each treatment. Synergism was defined as the higher percentage mortality in the insecticidal combination of both Formula 13 and chlorfenapyr compared to each individual component applied by itself."}, "adult female mosquitoes": {"system": "adult female mosquitoes", "assay": "whole plant or invertebrate", "conditions": "topical", "method": "The first group of DHAA-based derivatives that were tested included Formula A2, Formula B3, Formula C3, and Formula D3. A solution of 0.5% or 1.5% of each of these compounds was applied to the mosquitoes, as described above. […] Acetone was used as a control."}},
  "data": [
    {"compound": "CC(C)CCC(=O)c1c(O)c2ccccc2oc1=O", "note": "[Formula 13]", "values": [
      {"measurement": "mortality at 500 µg/mL", "setting": "[1]; Aedes aegypti, 24 h, read-out: 24-hr percentage mortality", "result": 11.2, "unit": "%"},
      {"measurement": "percentage mortality at 24 hour", "setting": "[1]; chlorfenapyr 75 ug/mL, Formula 13 500 ug/mL, alone or combined, words", "result": "very low mortality"},
      {"measurement": "1-hour Knockdown EC50 (μg/g mosquito)", "setting": "adult female mosquitoes; mosquito, 1 hour", "result": 182, "unit": "μg/g mosquito"},
      {"measurement": "LD50", "setting": "adult female mosquitoes; 24 h, read-out: 24-hour Mortality LD50 (μg/g mosquito)", "result": 119, "unit": "mg/kg"}
    ]}
  ]
}
